How the values were obtained:
TL-Om1 cells [1] = experiment: ADCC of mogamulizumab against TL-Om1 cells by human PBMCs pre-incubated in medium containing the compound itself; type: cell-based; conditions: human PBMCs pre-incubated in medium containing 100 nmol/L compound for 7 days
Procedure: NK cells were isolated from human PBMCs using NK isolation kit (Miltenyi Biotec, Cat. No. 130-092-657) and autoMACS instrument. Human PBMCs or NK cells were cultured in the conditioned medium (section 2.4.1) in a CO2 incubator. After 7 days, cells were harvested and counted, and used as effector cells. PBMCs and NK cells used as effector cells were suspended in the assay medium (RPMI1640 containing 10 vol % heat-inactivated fetal bovine serum and 1 vol % Penicillin-Streptomycin) to 5×10^6 cells/mL (PBMCs) or 4×10^5 cells/mL (NK cells). TL-Om1 cells, HH cells, SK-BR-3 cells, Raji cells or A431 cells (1×10^6 cells/each cell line) were labeled with 1.85 MBq of Na2^51CrO4 (PerkinElmer) for over 1 hour at 37° C. in a CO2 incubator. The cells were washed 3 times with assay medium. The radiolabeled cells used as target cells were suspended in 5 mL of the assay medium to 2×10^5 cells/mL. […] Fifty μL of the target cells (1×10^4 cells) were plated into 96-well round bottomed culture plates and mixed with 50 μL of antibody dilutions prepared as described above and 50 μL of the effector cells (2.5×10^5 cells). The culture plates were briefly centrifuged at 4° C. and incubated at 37° C. in a CO2 incubator for about 4 hours. […] The radioactivity was counted with a microplate scintillation counter (TopCount NXT, PerkinElmer).

SKOV3 cells = experiment: Cytotoxicity of PBMCs against SKOV3 cells with or without Antibody C1 (51Cr release); type: cell-based, human; conditions: PBMCs pre-incubated 7 days in conditioned medium of SKOV3 + 50 ng/mL IFNγ + 100 nmol/L compound, vs conditioned medium DMSO
Procedure: The supernatants of each culture were used as the conditioned medium for pre-incubation of PBMCs.
SKOV3 cells were detached from culture flasks by TrypLE Express (GIBCO). The live cells were adjusted to 1.0×10^6 cells by the ADCC assay medium [RPMI1640 without phenol red (GIBCO) with 10 vol % of dialyzed and heat-inactivated FCS(GIBCO)]. Then, the cells were labeled with approx. 3.7 MBq of Na2^51CrO4 (PerkinElmer) for over 1 hour at 37° C. in a CO2 incubator. The cells were washed three times, and adjusted to 2.0×10^5 cells/mL (1×10^4 cells/50 μL) as the target cells using the ADCC assay medium.
Human PBMCs were cultured in 25 mL of the conditioned medium for 7 days. […]
The cytotoxicity was quantified by measurement of radioactivity in the supernatant of each assay well. […]
Total, T spo, M, or Assay sample was defined and prepared as follows. • Total: Target cell total radioactivity control. This sample was prepared by mixing 50 μL of target cell, 15 μL of detergent (10×Lysis Solution, Promega), and 85 μL of the ADCC assay medium. • T spo: Target cell spontaneous radioactivity control. […]
Each sample was prepared in triplicate. […] The radioactivity (cpm) was counted with a microplate scintillation counter (TopCount NXT, PerkinElmer).
The cytotoxicity (%) was calculated by the following equations using the cpm of each well. […]

TL-Om1 cells [2] = experiment: ADCC of mogamulizumab against TL-Om1 cells by purified human NK cells pre-incubated in conditioned medium; type: cell-based
Procedure: (§1) KATO-III cells (1.25×10^6 cells) were treated with 25 ng/mL recombinant human IFN-γ. […] Three days later, cells and supernatants were separated by centrifugation. The supernatants were used as conditioned medium. The conditioned medium was used for incubation of human PBMCs or NK cells (section 2.4.2), and measurement of Kyn and Trp (section 2.4.4).
(§2) NK cells were isolated from human PBMCs using NK isolation kit (Miltenyi Biotec, Cat. No. 130-092-657) and autoMACS instrument. Human PBMCs or NK cells were cultured in the conditioned medium (section 2.4.1) in a CO2 incubator. After 7 days, cells were harvested and counted, and used as effector cells. […] The radioactivity was counted with a microplate scintillation counter (TopCount NXT, PerkinElmer).
(§3) The percentage of cytotoxicity was calculated according to the following formula: […]
(§4) E is the experimental released radioactivity (cpm), S is the mean of spontaneous released radioactivity (cpm) by adding the assay medium instead of effector cells and antibody, and M is the mean of maximum released radioactivity (cpm) by adding 10 vol % Triton™ X-100 (Sigma-Aldrich, Cat. No. T9284-100ML) instead of effector cells and antibody. […]

A431 cells = experiment: ADCC of cetuximab against A431 cells by human PBMCs pre-incubated in conditioned medium; type: cell-based; conditions: human PBMCs pre-incubated 7 days in conditioned medium of KATO-III + IFN-γ + 100 nmol/L compound
Procedure: as §1
(§5) NK cells were isolated from human PBMCs using NK isolation kit (Miltenyi Biotec, Cat. No. 130-092-657) and autoMACS instrument. Human PBMCs or NK cells were cultured in the conditioned medium (section 2.4.1) in a CO2 incubator. After 7 days, cells were harvested and counted, and used as effector cells. PBMCs and NK cells used as effector cells were suspended in the assay medium (RPMI1640 containing 10 vol % heat-inactivated fetal bovine serum and 1 vol % Penicillin-Streptomycin) to 5×10^6 cells/mL (PBMCs) or 4×10^5 cells/mL (NK cells). TL-Om1 cells, HH cells, SK-BR-3 cells, Raji cells or A431 cells (1×10^6 cells/each cell line) were labeled with 1.85 MBq of Na2^51CrO4 (PerkinElmer) for over 1 hour at 37° C. in a CO2 incubator. The cells were washed 3 times with assay medium. The radiolabeled cells used as target cells were suspended in 5 mL of the assay medium to 2×10^5 cells/mL. […]

SK-BR-3 cells = experiment: ADCC of trastuzumab against SK-BR-3 cells by human PBMCs pre-incubated in conditioned medium; type: cell-based; conditions: human PBMCs pre-incubated 7 days in conditioned medium of KATO-III + IFN-γ + 100 nmol/L compound
Procedure: as §1, §5

Raji cells = experiment: ADCC of rituximab against Raji cells by human PBMCs pre-incubated in conditioned medium; type: cell-based; conditions: human PBMCs pre-incubated 7 days in conditioned medium of KATO-III + IFN-γ + 100 nmol/L compound
Procedure: as §1, §5

HH cells = experiment: ADCC of mogamulizumab against HH cells by human PBMCs pre-incubated in conditioned medium; type: cell-based
Procedure: as §1, §2, §3, §4

TL-Om1 cells [3] = experiment: ADCC of mogamulizumab against TL-Om1 cells by human PBMCs pre-incubated in conditioned medium; type: cell-based
Procedure: as §1, §2, §3, §4

TL-Om1 cells [4] = experiment: ADCC of mogamulizumab against TL-Om1 cells by human PBMCs pre-incubated in conditioned medium of shRNA KATO-III cells; type: cell-based; conditions: PBMCs pre-incubated in conditioned medium 3 (parent + IFN-γ) or 4 (NegaCTRL shRNA + IFN-γ) compared with conditioned medium 1 or 2
Procedure: Parental KATO-III or KATO-III cells stably expressing IDO1 shRNA or NegaCTRL shRNA (1.25×10^6 cells) were treated with 25 ng/mL recombinant human IFN-γ. Cells were incubated in a CO2 incubator. Three days later, cells and supernatants were separated by centrifugation. The supernatants were used as conditioned medium. The conditioned medium was used for incubation of human PBMCs (Section 7.4.5), and measurement of Kyn and Trp (Section 7.4.7).
Human PBMCs were cultured in each conditioned medium (Section 7.4.4) in a CO2 incubator. After 7 days, cells were harvested and counted, and used as effector cells. PBMCs used as effector cells were suspended in the assay medium (RPMI1640 containing 10 vol % heat-inactivated fetal bovine serum and 1 vol % Penicillin-Streptomycin) to 5×10^6 cells/mL. […] The radioactivity was counted with a microplate scintillation counter (TopCount NXT, PerkinElmer).
as §3, §4

Molecule | effect of the compound itself on ADCC of mogamulizumab (TL-Om1 cells [1]) | cytotoxicity without Antibody C1 (natural killing activity) of PBMCs against SKOV3 cells (SKOV3 cells) | cytotoxicity of PBMCs against SKOV3 cells in the presence of Antibody C1 (SKOV3 cells; Antibody C1 0.033-333 ng/mL) | effect on the attenuation of ADCC of mogamulizumab by NK cells (TL-Om1 cells [2]; purified human NK cells pre-incubated in conditioned medium of KATO-III + IFN-γ + 100 nmol/L compound, TL-Om1 target cells) | effect on the attenuation of ADCC of cetuximab against A431 cells (A431 cells) | effect on the attenuation of ADCC of trastuzumab against SK-BR-3 cells (SK-BR-3 cells) | effect on the attenuation of ADCC of rituximab against Raji cells (Raji cells) | effect on the attenuation of ADCC of mogamulizumab against HH cells (HH cells; human PBMCs pre-incubated 7 days in conditioned medium of KATO-III + IFN-γ + 100 nmol/L compound) | effect on the attenuation of ADCC of mogamulizumab against TL-Om1 cells (TL-Om1 cells [3]; human PBMCs (donor 1, donor 2) pre-incubated 7 days in conditioned medium of KATO-III + IFN-γ + 100 nmol/L compound) | ADCC by NK cells against TL-Om1 cells (TL-Om1 cells [2]; purified NK cells pre-incubated in conditioned medium 2 (KATO-III + IFN-γ)) | ADCC against TL-Om1 cells (TL-Om1 cells [4]) | ADCC against HH cells (HH cells; PBMCs pre-incubated in conditioned medium 2 (KATO-III + IFN-γ)) | ADCC against TL-Om1 cells (TL-Om1 cells [3]; PBMCs (donor 1, donor 2) pre-incubated in conditioned medium 2 (KATO-III + IFN-γ) compared with conditioned medium 1)
NS(=O)(=O)NCCNc1nonc1C(=NO)Nc1ccc(F)c(Br)c1 [Compound B1, 4-({2-[(aminosulfonyl)amino]ethyl}amino)-N-(3-bromo-4-fluorophenyl)-N′-hydroxy-1,2,5-oxadiazole-3-carboximidamide] | did not influence | higher | higher | canceled | canceled the attenuation | canceled the attenuation | canceled the attenuation | canceled the attenuation | canceled the attenuation |  |  |  | 
mogamulizumab: humanized anti CCR4 monoclonal antibody (antibody, chains of the INN, looked up, V domains shown) VH: EVQLVESGGDLVQPGRSLRLSCAASGFIFSNYGMSWVRQAPGKGLEWVATISSASTYSYYPDSVKGRFTISRDNAKNSLYLQMNSLRVEDTALYYCGRHSDGNFAFGYWGQGTLVTVSS VL: DVLMTQSPLSLPVTPGEPASISCRSSRNIVHINGDTYLEWYLQKPGQSPQLLIYKVSNRFSGVPDRFSGSGSGTDFTLKISRVEAEDVGVYYCFQGSLLPWTFGQGTKVEIK |  |  |  |  |  |  |  |  |  | attenuated | attenuated | attenuated | attenuated
